Among the data in ChEMBL document CHEMBL1126158, “Conformational analyses and molecular-shape comparisons of a series of indanone-benzylpiperidine inhibitors of acetylcholinesterase” (J Med Chem, 1992) are IC50 values, retold here.

The assay concerns the target Acetylcholinesterase (Homo sapiens, UniProt P22303). As to the kind of experiment: Inhibition of acetylcholinesterase activity.

Acetylcholinesterase, sequence (P22303 whole entry): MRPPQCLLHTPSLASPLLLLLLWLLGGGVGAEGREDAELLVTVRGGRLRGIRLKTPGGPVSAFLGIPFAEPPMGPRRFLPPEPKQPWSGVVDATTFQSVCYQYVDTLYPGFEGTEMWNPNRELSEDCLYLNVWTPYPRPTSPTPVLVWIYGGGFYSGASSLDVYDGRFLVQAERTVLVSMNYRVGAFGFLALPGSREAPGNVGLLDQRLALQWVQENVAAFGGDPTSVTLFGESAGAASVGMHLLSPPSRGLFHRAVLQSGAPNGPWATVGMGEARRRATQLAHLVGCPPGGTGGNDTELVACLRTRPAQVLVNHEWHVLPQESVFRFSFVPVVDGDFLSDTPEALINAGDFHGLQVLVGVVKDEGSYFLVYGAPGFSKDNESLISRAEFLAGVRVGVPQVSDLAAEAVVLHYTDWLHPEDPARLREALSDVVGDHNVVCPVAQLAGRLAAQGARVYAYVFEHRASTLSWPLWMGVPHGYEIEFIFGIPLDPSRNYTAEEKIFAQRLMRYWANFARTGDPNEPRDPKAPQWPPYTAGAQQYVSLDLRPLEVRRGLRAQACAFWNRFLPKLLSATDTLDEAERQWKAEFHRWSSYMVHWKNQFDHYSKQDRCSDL

One may read the IC50 as the point on the concentration scale where inhibition reaches its midpoint. Compound `CN1CCC(C[C@@H]2Cc3ccccc3C2=O)CC1` returned an IC50 of 5.3 nM.
Turning to `CC1CCN(Cc2cccc3ccccc23)CC1`, the IC50 turned out to be 220 nM.
`CC1CCN(Cc2ccc3ccccc3c2)CC1` had a half-inhibitory concentration (IC50) of 2900 nM.
In turn, `CN1CCC(/C=C/C=C2\Cc3ccccc3C2=O)CC1` yielded an IC50 of 3 nM.
In turn, `CN1CCC(CC/C=C2\Cc3ccccc3C2=O)CC1` yielded an IC50 of 0.82 nM.
`CN1CCN(CC2Cc3ccccc3C2=O)CC1` (centres undefined) returned an IC50 of 94 nM.
`CC1CCN(CC2Cc3ccccc3C2=O)CC1` (centres undefined) registered a concentration for half-maximal inhibition (IC50) of 480 nM. This IC50 lies about 5.1-fold higher than the previous one.
In turn, `CN1CCC(/C=C2\Cc3ccccc3C2=O)CC1` yielded an IC50 of 8.4 nM.
`CN1CCC(=C2Cc3ccccc3C2=O)CC1` gave an IC50 of 1200 nM.
Compound `Cc1ccccc1CN1CCC(C)CC1` showed an IC50 of 10 nM.
In turn, `CC1CCN(Cc2ccccc2)CC1` returned an IC50 of 5.3 nM. This IC50 lies about 1.9-fold lower than the previous one.
The figure for `CN1CCC(CCC2C(=O)Nc3ccccc3C2=O)CC1` (centres undefined) is 4.2 nM.
`CN1CCC(CCCC2Cc3ccccc3C2=O)CC1` (centres undefined) displayed an IC50 of 1.5 nM.
With `CC1CCN(CCc2ccccc2)CC1`, half-maximal inhibition (IC50) required 180 nM.
In turn, `CC1CCN(CC2CCCCC2)CC1` came in with a half-maximal inhibitory concentration (IC50) of 8.9 nM.
The figure for `CN1CCC(CCN2C(=O)c3ccccc3C2=O)CC1` is 0.9 nM; for `CN1CCC(C[C@H]2Cc3ccccc3C2=O)CC1` it is 7.7 nM; for `CC1CCN(Cc2ccccc2[N+](=O)[O-])CC1` it is 160 nM.
Under `CN1CCC(C2Cc3ccccc3C2=O)CC1` (centres undefined) stands 3300 nM.
